This is an account of results in PMC6158327, “Negative Allosteric Modulators of mGlu7 Receptor as Putative Antipsychotic Drugs” (Frontiers in Molecular Neuroscience, 2018).

One data set addresses T1, mGlu7 receptor (Homo sapiens, UniProt Q14831).
T1 construct: expressed in transfected cells
As to the kind of experiment: HTRF cAMP assay: antagonism of L-Glu (EC80) inhibition of forskolin-stimulated cAMP accumulation (NAM profile). The data set is classed as cell-based. The note with it: HEK 293 T-REx cells expressing mGlu7; 6.26 mM L-Glu (EC80); 5 μM forskolin; n = 3; read-out: IC50, antagonism of L-Glu inhibition of cAMP accumulation in the presence of forskolin. As to the method:
A homogeneous time-resolved fluorescence (HTRF) cAMP dynamic 2 (Cisbio, Codolet, France) assay was performed as previously described ([Chruścicka et al., 2015]) with recombinant cell lines. Briefly, HEK 293 T-REx cells stably expressing mGlu7 receptor, were collected and suspended in Hanks-HEPES buffer. The cell suspension was added to compounds solution with 5 μM of forskolin (final concentration). After 5 min incubation in 37°C, 5 μl of cAMP-d2 conjugate in lysis buffer was added and mixed with the 10 μl cell suspension by means of an automated pipetting system (Tecan Evo 200, Tecan, Mannedorf, Switzerland). Next, 5 μl anti-cAMP cryptate conjugate was added and the fluorescence at 620 and 665 nm was read after 1 h (Tecan Infinite M1000). The results are shown as the 665 nm/620 nm ratio multiplied by 10^4. The detected signal was inversely proportional to the concentration of cAMP in the sample. […] Each experiment was performed three times (n = 3), and each data point was in triplicate.

Data set [1] in a line: Pharmacokinetic study, plasma concentration after i.p. injection. The note with it: Albino Swiss, ip, mouse, 10 mg/kg i.p.; for Tmax: 10 mg/kg. The data set is classed as in vivo. Here is the method: (§1) The mice were then perfused with 0.1M PBS to remove remaining blood from the body, and the brains were taken out for the analysis. Blood was centrifuged at 2000 rpm for 10 min at 4°C, and the plasma was collected and frozen at -80°C for further analysis.
(§2) Plasma and tissue samples from all drug-treated animals were thawed at room temperature prior to use. Standard protocol of sample preparation: 200 μl acetonitrile was added to the eppendorfs with 50 μl of studied plasma samples or tissue homogenate. Samples were mixed for 5 min on a mixer at 25°C and 1400 rpm. Tubes were then centrifuged at 2000 × g for 15 min at 4°C. About 180 μl of each supernatant was transferred into a plate well. Finally, each sample was injected into the column.
(§3) In calibration curve – serial dilution method, plasma was spiked with standard at different concentration levels. Acetonitrile was added. Mixed, centrifuged supernatant was taken.
(§4) Plasma and tissue samples from all drug-treated animals at selected time points are analyzed using previously developed a non-validated liquid chromatography-tandem mass spectrometry (LC-MS)/MS method.
(§5) LC/MS analysis was carried on a Bruker amaZon SL mass spectrometer using positive/ negative ion ESI mode. Chromatographic separation was achieved on a Ascentis Express C18 column, (5 cm × 2.1 mm, […], Supelco Technologies) at room temperature with a thermostatted column oven. A gradient elution of eluents A [acetonitrile (LiChrosolv, Reag. Ph Eur) +0.1% formic acid (Sigma–Aldrich, 98–100%)] and B (water +0.1% formic acid) was used for separation. The flow rate was set at 1 ml/min. The injection volume was 20 μl, and the time of injection was 4 min.
(§6) An Ion trap mass spectrometer (Bruker amaZon SL) was equipped with an electrospray source, operating in the positive/negative ion mode. Data were collected and processes using Bruker Quant Analysis software. Quantification of analytes was performed in SIM mode.

The nature of data set [2]: Pharmacokinetic study, brain concentration after i.p. injection. The data set is classed as in vivo, mouse (Albino Swiss). To be noted: mouse; for AUC / Cmax / Tmax / half-life: Albino Swiss, ip, brain, 10 mg/kg i.p. Here is the method:
as §1, §2, §3, §4, §5, §6

A further data set has as its target T2, Cytochrome P450 2B6 (Homo sapiens, UniProt P20813).
T2 sequence (P20813 1-491): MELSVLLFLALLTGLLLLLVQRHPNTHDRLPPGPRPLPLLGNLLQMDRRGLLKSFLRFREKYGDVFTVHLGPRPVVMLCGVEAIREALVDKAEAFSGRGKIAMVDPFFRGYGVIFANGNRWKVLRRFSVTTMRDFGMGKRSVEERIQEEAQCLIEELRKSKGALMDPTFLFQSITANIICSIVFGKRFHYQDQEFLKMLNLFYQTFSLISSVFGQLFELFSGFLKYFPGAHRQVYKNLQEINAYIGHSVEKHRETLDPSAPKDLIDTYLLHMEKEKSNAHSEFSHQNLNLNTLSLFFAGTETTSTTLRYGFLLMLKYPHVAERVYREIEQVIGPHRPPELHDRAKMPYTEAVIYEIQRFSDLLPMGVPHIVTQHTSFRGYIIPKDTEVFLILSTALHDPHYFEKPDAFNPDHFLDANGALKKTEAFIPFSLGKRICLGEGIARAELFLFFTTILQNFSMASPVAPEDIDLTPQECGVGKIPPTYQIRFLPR
Briefly: Cytochrome P450 inhibition, 2B6. The data set is classed as in vitro ADME.

The target of the next data set is Cytochrome P450 2C9 (Homo sapiens, UniProt P11712). Briefly: Cytochrome P450 inhibition, 2C9. The data set is classed as in vitro ADME.
Sequence of Cytochrome P450 2C9 (P11712 whole entry): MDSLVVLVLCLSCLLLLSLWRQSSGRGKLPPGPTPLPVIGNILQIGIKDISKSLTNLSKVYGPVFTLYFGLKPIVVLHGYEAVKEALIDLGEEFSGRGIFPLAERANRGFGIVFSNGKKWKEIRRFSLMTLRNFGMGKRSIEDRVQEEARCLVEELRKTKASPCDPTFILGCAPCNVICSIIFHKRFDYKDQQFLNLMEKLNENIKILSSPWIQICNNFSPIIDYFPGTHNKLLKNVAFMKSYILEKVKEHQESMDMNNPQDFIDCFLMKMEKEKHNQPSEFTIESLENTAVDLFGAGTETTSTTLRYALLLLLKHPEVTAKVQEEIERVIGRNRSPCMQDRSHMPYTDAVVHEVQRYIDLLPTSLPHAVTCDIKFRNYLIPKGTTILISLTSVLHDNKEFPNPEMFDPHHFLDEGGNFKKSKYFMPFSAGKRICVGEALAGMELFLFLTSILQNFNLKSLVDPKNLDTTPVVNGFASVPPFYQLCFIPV
The target of another data set is Cytochrome P450 2C19 (Homo sapiens, UniProt P33261). Briefly: Cytochrome P450 inhibition, 2C19. The data set is classed as in vitro ADME.
Sequence of Cytochrome P450 2C19 (P33261 whole entry): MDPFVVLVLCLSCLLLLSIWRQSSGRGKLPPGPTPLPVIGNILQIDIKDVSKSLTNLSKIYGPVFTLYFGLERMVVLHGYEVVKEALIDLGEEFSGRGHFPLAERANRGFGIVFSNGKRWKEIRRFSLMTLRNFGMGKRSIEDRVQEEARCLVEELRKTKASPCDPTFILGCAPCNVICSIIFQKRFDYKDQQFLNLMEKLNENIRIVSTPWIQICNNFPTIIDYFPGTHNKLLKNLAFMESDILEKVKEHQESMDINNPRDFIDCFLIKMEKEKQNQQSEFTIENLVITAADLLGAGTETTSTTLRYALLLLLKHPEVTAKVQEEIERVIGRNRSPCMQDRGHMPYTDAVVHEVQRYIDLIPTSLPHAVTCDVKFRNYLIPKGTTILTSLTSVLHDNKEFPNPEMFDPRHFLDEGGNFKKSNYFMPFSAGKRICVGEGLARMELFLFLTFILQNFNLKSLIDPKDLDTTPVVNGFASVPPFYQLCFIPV
Data set [3] deals with MK-801-induced hyperactivity. As to the kind of experiment: MK-801-induced hyperactivity. The data set is classed as in vivo, Albino Swiss mice. The note with it: 30 min prior to MK-801 (0.35 mg/kg, i.p.), mice. As to the method:
The locomotor activity was recorded individually for each animal in OPTO-M3 locomotor activity cages (Columbus Instrument) linked online to a compatible PC activity, as described previously by [Woźniak et al., 2016b]. Each cage (13 cm × 23 cm × 15 cm) was surrounded with an array of photocell beams. […] The locomotor activity was measured for 60 min immediately after MK-801 administration.

The subject of a further data set is rotarod performance. As to the kind of experiment: Rotarod test (motor coordination). The data set is classed as in vivo, Albino Swiss mice. To be noted: 5, 15, and 30 mg/kg i.p., 30 min before the test trial, mice. As to the method: The animals were trained for 3 consecutive days at the speed of 18 rpm, one session per day for 3 min. If a mice fell during the habituation period, it was placed back on the apparatus. On the following day, the test trial was performed. After the mice were placed on the apparatus (Mouse Rota-Rod NG, UGO BASILE S.R.L.) moving at the speed of 12 rpm, the accelerating mode was started (maximum speed – 24 rpm). The latency to fall was measured during 3-min test session.
Background: In the rotarod test animals must keep their balance on a rotating rod.

T1 sequence (Q14831 35-915): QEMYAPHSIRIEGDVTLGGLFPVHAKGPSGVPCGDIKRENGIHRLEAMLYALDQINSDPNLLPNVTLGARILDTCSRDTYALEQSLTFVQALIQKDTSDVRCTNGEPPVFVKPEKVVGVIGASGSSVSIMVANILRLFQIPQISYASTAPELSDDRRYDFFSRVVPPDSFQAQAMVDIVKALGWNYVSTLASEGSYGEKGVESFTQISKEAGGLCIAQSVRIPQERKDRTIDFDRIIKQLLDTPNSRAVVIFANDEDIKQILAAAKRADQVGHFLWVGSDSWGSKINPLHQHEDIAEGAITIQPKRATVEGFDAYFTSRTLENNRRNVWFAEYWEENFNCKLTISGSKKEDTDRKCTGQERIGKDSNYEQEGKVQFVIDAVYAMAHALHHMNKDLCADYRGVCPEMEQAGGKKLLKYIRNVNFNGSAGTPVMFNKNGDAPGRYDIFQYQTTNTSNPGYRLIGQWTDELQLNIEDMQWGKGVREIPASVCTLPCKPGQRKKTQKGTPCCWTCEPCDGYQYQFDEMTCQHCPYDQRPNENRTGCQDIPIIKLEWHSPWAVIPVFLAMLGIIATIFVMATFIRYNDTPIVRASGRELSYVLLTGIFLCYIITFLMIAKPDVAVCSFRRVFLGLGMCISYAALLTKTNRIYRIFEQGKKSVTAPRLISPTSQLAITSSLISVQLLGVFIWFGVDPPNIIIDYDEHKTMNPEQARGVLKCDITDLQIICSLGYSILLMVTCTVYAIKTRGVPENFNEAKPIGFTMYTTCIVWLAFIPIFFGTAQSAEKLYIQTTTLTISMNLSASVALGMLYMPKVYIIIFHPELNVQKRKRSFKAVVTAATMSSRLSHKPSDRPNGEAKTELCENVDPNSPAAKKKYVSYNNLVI

The IC50 is the concentration at which inhibition is half-maximal. A word on the AUC: it is the area under the concentration-time curve, a measure of exposure. A higher AUC goes with high exposure. Broadly, the Cmax is the highest concentration seen after dosing. For orientation: half-life means the time needed for the level to fall by half in the phase considered. Broadly, the Tmax is the time from dosing to the highest level. Regarding `CCc1nc2c(o1)CC(c1ccc(C)cc1C)CC2=O` (stereo not shown) [ADX71743, 6-(2,4-Dimethylphenyl)-2-ethyl-6,7-dihydro-4(5H)-benzoxazolone], the concentration for half-maximal inhibition (IC50) was 0.44 µM at mGlu7 receptor, > 10 µM on Cytochrome P450 2B6, > 10 µM against Cytochrome P450 2C9 and 3.3 to 10 µM on Cytochrome P450 2C19. Moreover, the AUC amounted to 1.9 µM·h in data set [1] and 2.27 µM·h in data set [2]. Besides, the values for the Cmax in data set [1] and in data set [2] were 3.73 µM and 3.38 µM, respectively. Further, the half-life in data set [1] is 54 min; in data set [2], 20.4 min. The Tmax in data set [1] and in data set [2] was 15 min each time. Besides, the Concentration in brain in data set [2] (0,5 h after 10 mg/kg i.p.) was 2,09 μM; in data set [2] (0,25 h after 10 mg/kg i.p.) it was 3,38 μM; in data set [2] (1 h after 10 mg/kg i.p.), 0,79 μM; in data set [2] (2 h after 10 mg/kg i.p.), 0,09 μM. Besides, the “Effect on MK-801-induced hyperactivity” value in data set [3] (5 mg/kg i.p.) and in data set [3] (15 mg/kg i.p.) was “decreased MK-801-induced hyperactivity in a statistically significant way” each time. In the data set with rotarod performance, the “Motor impairments in the rotarod test (latency to fall)” value is on record as “did not induce detectable motor impairments”.
With `COc1ccc(-c2cc3onc(-c4ccncc4)c3c(=O)n2C)cc1` [MMPIP, 6-(4-Methoxyphenyl)-5-methyl-3-(4-pyridinyl)-isoxazolo(4,5-c)pyridin-4(5H)-one], the IC50 on mGlu7 receptor is 0.38 µM; against Cytochrome P450 2B6, > 10 µM; against Cytochrome P450 2C9, > 10 µM; against Cytochrome P450 2C19, < 1.1 µM. Further, the AUC in data set [1] was found to be 13.5 µM·h; in data set [2], 8.98 µM·h. Besides, the Cmax in data set [1] came to 9.85 µM; in data set [2] it was 5.42 µM. The half-life in data set [1] is 69.6 min; in data set [2], 105 min. The Tmax in data set [1] and in data set [2] was 30 min throughout. The Concentration in brain in data set [2] (0,5 h after 10 mg/kg i.p.) is on record as 5,42 μM; in data set [2] (0,25 h after 10 mg/kg i.p.) it was 3,63 μM; in data set [2] (1 h after 10 mg/kg i.p.), 2,44 μM; in data set [2] (2 h after 10 mg/kg i.p.), 1,79 μM. Also, the “Effect on MK-801-induced hyperactivity” value in data set [3] (15 mg/kg i.p.) is listed as “significant reversal of MK-801-induced effect”. In addition, the “Motor impairments in the rotarod test (latency to fall)” value with rotarod performance is “did not induce detectable motor impairments”.
